# Reference: US12338253B2, “Nitrogen-containing polycyclic fused ring compound, pharmaceutical composition thereof, preparation method therefor and use thereof” (APPLIED PHARMACEUTICAL SCIENCE, INC., priority 2019, dated 2025)
# pIC50: −log10 of the molar value.
# What was measured:
# RET wt = RET wt (Homo sapiens (Human), UniProt P07949); test: HTRF kinase activity test, RET wt; type: biochemical; conditions: for pIC50: HTRF KinEASE-TK; for inhibitory activity on RET wt compared with cabozantinib: comparison in words
# Sequence of RET wt (P07949 29-1114): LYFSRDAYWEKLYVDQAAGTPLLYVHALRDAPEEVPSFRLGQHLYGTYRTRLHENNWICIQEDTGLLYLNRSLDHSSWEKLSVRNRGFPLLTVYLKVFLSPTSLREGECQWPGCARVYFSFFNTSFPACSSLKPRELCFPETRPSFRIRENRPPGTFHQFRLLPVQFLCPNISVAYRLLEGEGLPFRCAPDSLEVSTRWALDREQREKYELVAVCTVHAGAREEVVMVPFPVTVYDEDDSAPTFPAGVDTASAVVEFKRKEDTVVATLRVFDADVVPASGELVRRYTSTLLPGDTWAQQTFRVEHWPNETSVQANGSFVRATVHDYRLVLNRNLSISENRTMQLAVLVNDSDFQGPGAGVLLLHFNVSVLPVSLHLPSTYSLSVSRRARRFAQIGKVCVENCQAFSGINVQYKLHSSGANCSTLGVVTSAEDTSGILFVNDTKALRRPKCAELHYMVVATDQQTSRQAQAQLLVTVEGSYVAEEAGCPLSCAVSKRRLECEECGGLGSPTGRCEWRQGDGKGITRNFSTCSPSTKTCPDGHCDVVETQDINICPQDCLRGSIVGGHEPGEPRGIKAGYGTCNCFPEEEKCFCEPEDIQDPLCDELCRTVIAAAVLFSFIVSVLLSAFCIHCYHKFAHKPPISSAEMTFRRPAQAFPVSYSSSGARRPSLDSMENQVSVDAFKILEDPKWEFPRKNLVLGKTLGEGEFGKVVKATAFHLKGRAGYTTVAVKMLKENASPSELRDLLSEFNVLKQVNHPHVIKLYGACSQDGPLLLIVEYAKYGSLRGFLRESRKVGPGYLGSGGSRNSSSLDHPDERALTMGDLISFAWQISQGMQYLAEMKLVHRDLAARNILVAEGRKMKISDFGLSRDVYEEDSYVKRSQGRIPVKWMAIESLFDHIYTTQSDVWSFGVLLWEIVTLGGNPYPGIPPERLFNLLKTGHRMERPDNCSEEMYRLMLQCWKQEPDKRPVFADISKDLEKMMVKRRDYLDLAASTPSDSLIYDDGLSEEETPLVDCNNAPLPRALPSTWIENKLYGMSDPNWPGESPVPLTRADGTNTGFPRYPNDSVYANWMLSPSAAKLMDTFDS
# RET V804M = RET V804M (Homo sapiens (Human), UniProt P07949, V804M); test: HTRF kinase activity test, RET V804M; type: biochemical; conditions: for pIC50: HTRF KinEASE-TK; for inhibitory activity on RET V804M compared with cabozantinib: comparison in words
# Sequence of RET V804M (P07949 29-1114 V804M): as the sequence (P07949 29-1114) above, with V776M counted along it
# RET G810R = RET G810R (Homo sapiens (Human), UniProt P07949, G810R); test: HTRF kinase activity test, RET G810R; type: biochemical; conditions: for pIC50: HTRF KinEASE-TK; for inhibitory activity on RET G810R compared with cabozantinib and selpercatinib (LOXO-292): comparison in words
# Sequence of RET G810R (P07949 29-1114 G810R): as the sequence (P07949 29-1114) above, with G782R counted along it
# TT Cell = test: TT cell activity test (CelltiterGlo, 72 h); type: cell-based, human; conditions: for pIC50: Homo sapiens, TT cell line, 72 h, CTG; for inhibitory activity on TT cells compared with cabozantinib: comparison in words
# Description: 2.3 Data Processing % Inhibition (inhibition rate)=100*(HC−test compound well reading)/(HC−LC) • High control (HC, reading control without inhibition): 0.5% DMSO • Low control (LC, control with compound inhibition): 1 μM CEP-32496
# The IC50 values were calculated using GraphPad Prism 6 software. Y=Bottom+(Top−Bottom)/(1+10^((Log IC50−X)*HillSlope)); • X: log of cpd concentration; • Y: % inhibition; • Top and Bottom: plateaus in same units as Y; • Log IC50: same log units as X; and • HillSlope: slope factor The Cell Results are Shown in Table 5: […]
# [1] = test system: TT cell human medullary thyroid carcinoma xenograft model; test: Pharmacodynamic test on TT cell human medullary thyroid carcinoma xenograft model; type: in vivo, mice; conditions: 10 mg/kg, oral, twice a day, 28 consecutive days
# Description: TT tumor cells were cultured in F12K medium containing inactivated 10% fetal bovine serum, 100 U/mL penicillin, 100 μg/mL streptomycin and 2 mM glutamine in an incubator at 37° C. and 5% CO2. The cells were cultured at a starting concentration of 1×10^6 cells/mL, and divided and transferred to flasks for sub-culture every 3 to 4 days when they were overgrown. The tumor cells in the logarithmic growth phase were used for tumor inoculation in vivo.
# The TT tumor cells resuspended in serum-free F12K medium at a concentration of 1×10^7 cells+gel/100 μL were inoculated subcutaneously into the right flank of experimental animals. When the tumor grew to about 224 mm^3, the compounds were administered in groups, with 6 animals in each group.
# The mice were orally administered with the test compound twice a day for 28 consecutive days.
# Tumor volume: the long and short diameters of the tumor were measured using a vernier caliper. The volume was calculated by the formula: volume=0.5×long diameter×short diameter^2. Animals were required to have their body weight and tumor size measured twice a week during the administration.
# Reaction of animals after the administration: the experimental animals were weighed while measuring the tumors. The relationship between the change in the animal weight and the time of administration was recorded. At the same time, the survival and health of the mice, such as animal activity, feeding and other general states during the administration were observed.
# Relative tumor proliferation rate T/C (%)=TRTV/CRTV×100% (TRTV: treatment group RTV; CRTV: negative control group RTV), where the relative tumor volume (RTV) is calculated as: RTV=Vt/V0, where V0 is the tumor volume measured at the time of group administration (that is, day 1 of the administration), and Vt is the tumor volume at each measurement. Tumor growth inhibition rate TGI (%)=(1−T/C)×100%.
# [2] = test system: Ba/F3 cell KIF5B-RET-V804M fusion xenograft model; test: Pharmacodynamic test on Ba/F3 cell KIF5B-RET-V804M fusion xenograft model; type: in vivo, BALB/c nude mice; conditions: 10 mg/kg; for Tumor growth inhibition rate: oral, twice a day, end of the control experiment (day 8 of the administration); for tumor volume compared with the selpercatinib group: p<0.05
# [3] = end of the experiment (day 14 of the administration)
Compound,pIC50 (RET wt),inhibitory activity on RET wt compared with cabozantinib (RET wt),pIC50 (RET V804M),inhibitory activity on RET V804M compared with cabozantinib (RET V804M),pIC50 (RET G810R),inhibitory activity on RET G810R compared with cabozantinib and selpercatinib (LOXO-292) (RET G810R),pIC50 (TT Cell),inhibitory activity on TT cells compared with cabozantinib (TT Cell),Tumor growth inhibition rate TGI [1],Tumor growth inhibition rate [2],tumor volume compared with the selpercatinib group ([2]; day 8 of the administration),"tumor volume compared with the selpercatinib group [2, 3]"
"CCOc1cc(-c2ccc(N3CC4CC(C3)N4Cc3ccc(OC)nc3)nc2)c2c3cn[nH]c3nn2c1 [Compound 9, 6-ethoxy-4-(6-(6-((6-methoxypyridin-3-yl)methyl)-3,6-diazabicyclo[3.3.1]heptan-3-yl)pyridin-3-yl)-1H-pyrazolo[3′,4′:3,4]pyrazolo[1,5-a]pyridine]",9.70,significantly better than that of cabozantinib,10.00,significantly better than that of cabozantinib,8.72,significantly better than that of cabozantinib and selpercatinib (LOXO-292),8.26,significantly better than that of cabozantinib,88.5%,94%,significantly lower than that of the selpercatinib group,significantly lower than that of the selpercatinib group
"COc1ccc(CN2C3CC2CN(c2ccc(-c4cc(OCCF)cn5nc6[nH]ncc6c45)cn2)C3)cn1 [Compound 31, 6-(2-fluoroethoxy)-4-(6-(6-((6-methoxypyridin-3-yl)methyl)-3,6-diazabicyclo[3.3.1]heptan-3-yl)pyridin-3-yl)-1H-pyrazolo[3′,4′:3,4]pyrazolo[1,5-a]pyridine]",10.00,significantly better than that of cabozantinib,10.00,significantly better than that of cabozantinib,9.00,significantly better than that of cabozantinib and selpercatinib (LOXO-292),7.90,significantly better than that of cabozantinib,87.4%,92%,significantly lower than that of the selpercatinib group,significantly lower than that of the selpercatinib group
"COc1ccc(CN2C3CC2CN(c2ccc(-c4cc(OCC(F)F)cn5nc6[nH]ncc6c45)cn2)C3)cn1 [Compound 32, 6-(2,2-difluoroethoxy)-4-(6-(6-((6-methoxypyridin-3-yl)methyl)-3,6-diazabicyclo[3.3.1]heptan-3-yl)pyridin-3-yl)-1H-pyrazolo[3′,4′:3,4]pyrazolo[1,5-a]pyridine]",10.00,significantly better than that of cabozantinib,10.00,significantly better than that of cabozantinib,8.64,significantly better than that of cabozantinib and selpercatinib (LOXO-292),8.19,significantly better than that of cabozantinib,86.9%,96%,significantly lower than that of the selpercatinib group,significantly lower than that of the selpercatinib group
"COc1ccc(CN2C3CC2CN(c2ccc(-c4cc(OCC(C)(C)O)cn5ncc(C#N)c45)cn2)C3)cn1 [Selpercatinib(LOXO-292), Selpercatinib, reference compound]",,,,,,,,,,49%,,
